Assay results as given in publication PMC4755858 (Biochemistry, 2016).
Where two headings read alike, the source gives them in different places.

Experiments:
[1] = test system: wild-type ydaO riboswitch; assay: gel-shift; type: binding, Bacillus subtilis; details: for binding to ydaO riboswitch (in words): competition gel-shift, highest analog concentration tested (≥200 µM); for ΔΔGbind: ΔGbind(analog) − ΔGbind(c-di-AMP); for binding energy weaker than the corresponding deoxy variant: 2’-fluoro versus 2’-deoxy analog (c-dA-AMP or c-di-dAMP)
[2] = target: phosphodiesterase protein GdpP (Bacillus subtilis, UniProt P37484); assay: competition phosphodiesterase assay; details: for Fold Change: Ki relative to Km of c-di-AMP (130 µM); for effect on c-di-AMP degradation by GdpP (in words): excess unlabeled competitor analog
[3] = target: T1, phosphodiesterase protein GdpP (GdpP84–659) (Bacillus subtilis, UniProt P37484); assay: HPLC phosphodiesterase assay, degradation rates of c-di-AMP and analogs; type: biochemical; details: for Fold Change: hydrolysis rate relative to c-di-AMP (fold slower); for degradation by GdpP (in words): HPLC assay, incubation up to 24 h
[4] = target: T1, phosphodiesterase protein GdpP (GdpP84–659); details: cited from earlier work
[5] = target: ydaO riboswitch ΔSite1 mutant; assay: gel-shift binding to ydaO binding-site mutant ΔSite1; details: for Kd: read-out: Ligand Kd; for Kd / fold loss in affinity compared to native ligand: ΔSite1 construct; for fold loss in affinity compared to native ligand: versus c-di-AMP
[6] = test system: ydaO riboswitch Site 1U construct; assay: gel-shift binding to ydaO G-U mutant Site 1U
[7] = target: ydaO riboswitch ΔSite2 mutant; assay: gel-shift binding to ydaO binding-site mutant ΔSite2; details: for Kd: read-out: Ligand Kd; for Kd / fold loss in affinity compared to native ligand: ΔSite2 construct; for fold loss in affinity compared to native ligand: versus c-di-AMP
[8] = target: T1, phosphodiesterase protein GdpP (GdpP84–659); assay: steady-state kinetics; type: biochemical
[9] = test system: ydaO riboswitch, both binding sites mutated; assay: gel-shift binding to ydaO construct with both binding sites mutated; details: both binding sites mutated in a single construct
[10] = test system: ydaO riboswitch ΔSite1 mutant; details: cited from earlier work
[11] = test system: ydaO riboswitch Site 2U construct; assay: gel-shift binding to ydaO G-U mutant Site 2U
[12] = test system: wild-type ydaO riboswitch; details: cited from earlier work
[13] = loss in affinity for wild-type ydaO relative to c-di-AMP

T1 sequence (P37484 84-659): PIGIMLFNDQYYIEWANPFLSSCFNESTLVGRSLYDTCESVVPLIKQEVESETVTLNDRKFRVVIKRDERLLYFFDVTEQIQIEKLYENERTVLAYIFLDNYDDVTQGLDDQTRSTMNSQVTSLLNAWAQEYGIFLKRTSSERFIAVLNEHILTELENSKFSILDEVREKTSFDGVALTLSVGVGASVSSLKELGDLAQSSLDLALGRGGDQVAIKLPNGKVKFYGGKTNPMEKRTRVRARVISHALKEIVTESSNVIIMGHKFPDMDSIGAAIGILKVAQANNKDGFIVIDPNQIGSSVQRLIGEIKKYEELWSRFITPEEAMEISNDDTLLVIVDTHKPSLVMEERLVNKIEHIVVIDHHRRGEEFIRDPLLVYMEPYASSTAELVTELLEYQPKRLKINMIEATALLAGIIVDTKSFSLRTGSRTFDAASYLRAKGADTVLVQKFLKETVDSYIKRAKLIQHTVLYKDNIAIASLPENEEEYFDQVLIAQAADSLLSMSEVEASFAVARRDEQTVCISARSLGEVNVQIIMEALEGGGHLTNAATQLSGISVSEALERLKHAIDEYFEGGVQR
Sequence of phosphodiesterase protein GdpP (P37484 84-659): as above

Q: With `Nc1nc2c(ncn2[C@@H]2O[C@@H]3COP(=O)(O)O[C@H]4[C@@H](O)[C@H](n5cnc6c(=O)[nH]c(N)nc65)O[C@@H]4COP(=O)(O)O[C@H]3[C@H]2O)c(=O)[nH]1` [c-di-GMP, (3’-5’)-cyclic diguanosine monophosphate, reference compound] as the molecule, how does the “binding to ydaO riboswitch (in words)” value [1] read?
A: no detectable binding

Q: What about the ΔΔGbind ([1]; wild-type ydaO) of the same molecule?
A: > 10 kcal/mol

Q: Which results are given for `Nc1ncnc2c1ncn2[C@@H]1O[C@@H]2COP(=O)(O)O[C@H]3[C@@H](F)[C@H](n4cnc5c(N)ncnc54)O[C@@H]3COP(=O)(O)O[C@H]2[C@H]1F` [c-di-2’F-AMP]?
A: Ki [2]: 26 ± 3.6 µM; Fold Change [2]: 0.2; effect on c-di-AMP degradation by GdpP (in words) [2]: reduced degradation velocity; binding energy weaker than the corresponding deoxy variant ([1]; wild-type ydaO): more than 1.7 kcal/mol; Fold Loss [1, 13]: 5100; ΔΔGbind ([1]; wild-type ydaO): 5.1 kcal/mol; Fold Change [3]: ≥ 4100

Q: Which results are given for `Nc1ncnc2c1ncn2[C@@H]1O[C@@H]2COP(=O)(O)O[C@H]3[C@@H](O)[C@H](n4cnc5c(N)ncnc54)O[C@@H]3COP(=O)(O)O[C@H]2[C@H]1O` [c-di-AMP, (3’-5’)-cyclic diadenosine monophosphate]?
A: rate of c-di-AMP hydrolysis, previously published value [4]: 0.55 ± 0.02 s⁻¹; Kd [5]: 5.5 ± 0.3 nM; Hill coefficient ([5]; ΔSite1 mutant): 1; fold lower affinity than the ΔSite mutants ([6]; Site 1U (G-U wobble) construct): less than 10 fold; Hill coefficient ([6]; Site 1U construct): 1; Kd [7]: 3.3 ± 0.5 nM; Hill coefficient ([7]; ΔSite2 mutant): 1; fold loss in affinity compared with wild-type ydaO ([7]; ΔSite2 mutant versus wild-type): 6 fold; Km ([8]; c-di-AMP as substrate of GdpP): 130 µM; rate of c-di-AMP hydrolysis (kcat) ([8]; steady-state, substrate 3 to 800 µM, 200 nM GdpP): 0.26 ± 0.02 s⁻¹; Vmax, maximum reaction velocity ([8]; used in Ki equation): 15.6 min⁻¹; Hill coefficient ([1]; c-di-AMP binding curve, wild-type ydaO, cooperative binding model): 1.6; affinity for the riboswitch (in words) [9]: disrupted c-di-AMP affinity; binding to Site 2 when Site 1 was mutated (in words) [10]: No measurable binding; fold lower affinity than the ΔSite mutants ([11]; Site 2U (G-U wobble) construct): less than 10 fold; Hill coefficient ([11]; Site 2U construct): 1; initial rate of hydrolysis ([3]; 100 µM substrate, 1 µM GdpP): 4.1 min⁻¹; degradation of c-di-AMP after 60 min (in words) ([3]; HPLC traces, experimental conditions used): completely degraded; selectivity of ydaO binding over c-di-GMP and c-AMP-GMP [12]: more than 100,000 fold

Q: For `O=c1[nH]cnc2c1ncn2[C@@H]1O[C@@H]2COP(=O)(O)O[C@H]3[C@@H](O)[C@H](n4cnc5c(=O)[nH]cnc54)O[C@@H]3COP(=O)(O)O[C@H]2[C@H]1O` [c-di-IMP], which “Fold Loss” value [1, 13] is on record?
A: 3600

Q: And the ΔΔGbind ([1]; wild-type ydaO)?
A: 4.9 kcal/mol

Q: And the “Fold Change” value [3]?
A: ≥ 4100

Q: Which results are given for `Nc1ncnc2c1ncn2C1CC2OP(=O)(O)OCC3OC(n4cnc5c(N)ncnc54)C(O)C3OP(=O)(O)OCC2O1` (centres unmarked) [c-dA-AMP]?
A: effect on c-di-AMP degradation by GdpP (in words) [2]: measurable deficiency in linearization; Fold Loss [1]: 20; ΔΔGbind ([1]; wild-type ydaO): 1.8 kcal/mol; Fold Change [3]: 1.2

Q: Which Ki [2] does the source give for `Nc1ncnc2c1ncn2[C@@H]1O[C@@H]2COP(=O)(O)O[C@H]3C[C@H](n4cnc5c(N)ncnc54)O[C@@H]3COP(=O)(O)O[C@H]2[C@H]1F` [c-dA-2’F-A] here?
A: 9.4 ± 0.8 µM

Q: And the “Fold Change” value [2]?
A: 0.07

Q: And the “effect on c-di-AMP degradation by GdpP (in words)” value (from here on “effect on c-di-AMP degradation”) [2]?
A: reduced degradation velocity

Q: What about the “Fold Loss” value [1, 13] of the same molecule?
A: 530

Q: What about the “improvement in binding energy by replacing a 2’-fluoro substituent with a 2’-deoxy group” value ([1]; wild-type ydaO) of the same molecule?
A: ~1.4 kcal/mol

Q: What about the ΔΔGbind ([1]; wild-type ydaO) of the same molecule?
A: 3.7 kcal/mol

Q: What about the “Fold Change” value [3] of the same molecule?
A: ≥ 4100

Q: With `CO[C@@H]1[C@@H]2OP(=O)(O)OC[C@H]3O[C@@H](n4cnc5c(N)ncnc54)[C@H](OC)[C@@H]3OP(=O)(O)OC[C@H]2O[C@H]1n1cnc2c(N)ncnc21` [c-di-2’OMe-AMP] as the molecule, how does the Ki [2] read?
A: 15 ± 2.5 µM

Q: And the “Fold Change” value [2]?
A: 0.12

Q: And the “effect on c-di-AMP degradation” value [2]?
A: reduced degradation velocity

Q: And the “binding to ydaO riboswitch (in words)” value [1]?
A: no detectable affinity

Q: What about the “Fold Loss” value [1, 13] of the same molecule?
A: > 2.9 × 10^6

Q: What about the ΔΔGbind ([1]; wild-type ydaO) of the same molecule?
A: > 8.8 kcal/mol

Q: And the “Fold Change” value [3]?
A: ≥ 4100

Q: What does the source list for `Nc1ncnc2c1ncn2[C@@H]1O[C@@H]2CO[P@@](=O)(S)O[C@H]3[C@@H](O)[C@H](n4cnc5c(N)ncnc54)O[C@@H]3CO[P@](=O)(S)O[C@H]2[C@H]1O` [c-(RpSp)-di-Aps]?
A: Ki [2]: 210 ± 17 µM; Fold Change [2]: 1.6; Fold Change ([2]; listed as RpSp): ≤ 2; Kd [5]: 9.4 ± 1.1 nM; fold loss in affinity compared to native ligand [5]: 2 fold; Kd [7]: 5.4 ± 0.4 nM; fold loss in affinity compared to native ligand [7]: 2 fold; Fold Loss [1, 13]: 2.9; ΔΔGbind ([1]; wild-type ydaO): 0.6 kcal/mol; degradation by GdpP (in words) [3]: No detectable degradation; Fold Change [3]: ≥ 4100

Q: What does the source list for `COC1C2OP(=O)(O)OCC3OC(n4cnc5c(N)ncnc54)C(O)C3OP(=O)(O)OCC2OC1n1cnc2c(N)ncnc21` (centres unmarked) [c-2’OMe-A-AMP]?
A: Fold Loss [1]: 620; Fold Change [3]: 30

Q: With `Nc1ncnc2c1ncn2[C@@H]1O[C@@H]2CO[P@@](=O)(S)O[C@H]3[C@@H](O)[C@H](n4cnc5c(N)ncnc54)O[C@@H]3CO[P@@](=O)(S)O[C@H]2[C@H]1O` [c-(RpRp)-di-Aps] as the molecule, how does the Ki [2] read?
A: 260 ± 2.7 µM

Q: And the “Fold Change” value [2]?
A: 2.0

Q: What about the “Fold Change” value ([2]; listed as RpRp) of the same molecule?
A: ≤ 2

Q: And the Kd [5]?
A: 11.3 ± 0.8 nM

Q: And the “fold loss in affinity compared to native ligand” value [5]?
A: 2 fold

Q: And the Kd [7]?
A: 6.2 ± 0.5 nM

Q: What about the “fold loss in affinity compared to native ligand” value [7] of the same molecule?
A: 2 fold

Q: What about the “Fold Loss” value [1, 13] of the same molecule?
A: 1.8

Q: And the ΔΔGbind ([1]; wild-type ydaO)?
A: 0.4 kcal/mol

Q: What about the “degradation by GdpP (in words)” value [3] of the same molecule?
A: No detectable degradation

Q: What about the “Fold Change” value [3] of the same molecule?
A: ≥ 4100

Q: Which Ki [2] does the source give for `Nc1ncnc2c1ncn2[C@H]1C[C@@H]2OP(=O)(O)OC[C@H]3O[C@@H](n4cnc5c(N)ncnc54)C[C@@H]3OP(=O)(O)OC[C@H]2O1` [c-di-dAMP] here?
A: 200 ± 18 µM

Q: And the “Fold Change” value [2]?
A: 1.5

Q: What about the “effect on c-di-AMP degradation” value [2] of the same molecule?
A: reduced degradation velocity

Q: What about the “Fold Loss” value [1, 13] of the same molecule?
A: 290

Q: What about the ΔΔGbind ([1]; wild-type ydaO) of the same molecule?
A: 3.4 kcal/mol

Q: What about the “Fold Change” value [3] of the same molecule?
A: ≥ 4100

Q: What about the “loss in ligand affinity” value ([12]; previously reported) of the same molecule?
A: up to 100 fold

Q: For `Nc1ncnc2c1ncn2[C@@H]1O[C@@H]2COP(=O)(O)O[C@H]3[C@@H](F)[C@H](n4cnc5c(N)ncnc54)O[C@@H]3COP(=O)(O)O[C@H]2[C@H]1O` [c-2’F-A-AMP], which “Fold Loss” value [1] is on record?
A: 47

Q: And the “binding energy weaker than the corresponding deoxy variant” value ([1]; wild-type ydaO)?
A: ~0.5 kcal/mol

Q: And the ΔΔGbind ([1]; wild-type ydaO)?
A: 2.3 kcal/mol

Q: And the “Fold Change” value [3]?
A: 24

Q: With `Nc1ncnc2c1ncn2[C@@H]1O[C@@H]2COP(=O)(O)O[C@H]3[C@@H](O)[C@H](n4cnc5c(=O)[nH]cnc54)O[C@@H]3COP(=O)(O)O[C@H]2[C@H]1O` [c-AMP-IMP] as the molecule, how does the ΔΔGbind ([1]; wild-type ydaO) read?
A: 4.3 kcal/mol

Q: What about the “Fold Change” value [3] of the same molecule?
A: 3.3
